Measurements: patent US20230277533A1, “THERAPEUTIC COMBINATIONS COMPRISING UBIQUITIN-SPECIFIC-PROCESSING PROTEASE 1 (USP1) INHIBITORS AND POLY (ADP-RIBOSE) POLYMERASE (PARP) INHIBITORS” (KSQ Therapeutics, Inc., priority 2020, published 2023)
Where two headings read alike, the source gives them in different places.

Key:
Test in all cases: Colony formation (CFU) assay
Format in all cases: cell-based
22RV1 = conditions: Homo sapiens; 22RV1, prostate
Procedure, shortened: (§1)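 Seeding density set per line for separated colonies over ~14 days; treatment medium with test agents or DMSO from day 8. Endpoint: crystal violet staining, acetic acid extraction, absorbance 565 nm. IC50 from a two-parameter Hill curve.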

59M = conditions: ovary
Procedure, shortened: as §1

BICR18 = conditions: BICR18, head and neck
Procedure, shortened: as §1

BICR22 = conditions: BICR22, head and neck
Procedure, shortened: as §1

DOTC24510 = conditions: Homo sapiens, DoTc2-4510; DOTC24510, cervix
Procedure, shortened: as §1

FADU = conditions: Homo sapiens, head and neck
Procedure, shortened: as §1

GOTO = conditions: nervous system
Procedure, shortened: as §1

HBCx17 = conditions: HBCx17, breast
Procedure, shortened: as §1

HCC1954 = conditions: Homo sapiens; HCC1954, breast
Procedure, shortened: as §1

HCT15 = conditions: Homo sapiens, HCT-15; HCT15, colon
Procedure, shortened: as §1

HS695T = conditions: Homo sapiens, Hs 695T, skin
Procedure, shortened: as §1

HS888T = conditions: bone
Procedure, shortened: as §1

HT1080 = conditions: Homo sapiens, HT-1080; HT1080, soft tissue
Procedure, shortened: as §1

HT115 = test system: HT115
Procedure, shortened: as §1

JIMT1 = conditions: Homo sapiens, JIMT-1; JIMT1, breast
Procedure, shortened: as §1

KU1919 = conditions: Homo sapiens, KU-19-19; KU1919, bladder
Procedure, shortened: as §1

KYSE140 = conditions: Homo sapiens, KYSE-140; KYSE140, esophagus
Procedure, shortened: as §1

LNCAP = conditions: Homo sapiens, prostate
Procedure, shortened: as §1

MDAMB231 = conditions: Homo sapiens, MDA-MB-231; MDAMB231, breast
Procedure, shortened: as §1

NCIH1299 = conditions: Homo sapiens, NCI-H1299; NCIH1299, lung
Procedure, shortened: as §1

NCIH1573 = conditions: Homo sapiens, NCI-H1573; NCIH1573, lung
Procedure, shortened: as §1

NCIH1651 = conditions: Homo sapiens, NCI-H1651; NCIH1651, lung
Procedure, shortened: as §1

OVSAHO = conditions: Homo sapiens, ovary
Procedure, shortened: as §1

PECAPJ49 = conditions: PECAPJ49, head and neck
Procedure, shortened: as §1

PK45H = conditions: pancreas
Procedure, shortened: as §1

RCM1 = conditions: Homo sapiens, RCM-1; RCM1, colon
Procedure, shortened: as §1

RERFLCAI = conditions: lung
Procedure, shortened: as §1

RKO = conditions: Homo sapiens, colon
Procedure, shortened: as §1

RL952 = conditions: Homo sapiens, RL95-2; RL952, uterus
Procedure, shortened: as §1

SKOV3_BRCA1null = conditions: ovary
Procedure, shortened: as §1

SKOV3 = conditions: Homo sapiens, SK-OV-3; SKOV3, ovary
Procedure, shortened: as §1

SNGM = conditions: uterus
Procedure, shortened: as §1

SNU213 = conditions: SNU213, pancreas
Procedure, shortened: as §1

SNU668 = conditions: SNU668, stomach
Procedure, shortened: as §1

TE9 = conditions: Homo sapiens, TE-9; TE9, esophagus
Procedure, shortened: as §1

TGBC1TKB = conditions: biliary tract
Procedure, shortened: as §1

U2OS = conditions: Homo sapiens, bone
Procedure, shortened: as §1

YKG1 = conditions: Homo sapiens, YKG-1; YKG1, nervous system
Procedure, shortened: as §1

Row | Structure (SMILES) | IC50 (22RV1) | IC50 (59M) | IC50 (BICR18) | IC50 (BICR22) | IC50 (DOTC24510) | IC50 (FADU) | IC50 (GOTO) | IC50 (HBCx17) | IC50 (HCC1954) | IC50 (HCT15) | IC50 (HS695T) | IC50 (HS888T) | IC50 (HT1080) | IC50 (JIMT1) | IC50 (KU1919) | IC50 (KYSE140) | IC50 (LNCAP) | IC50 (MDAMB231) | IC50 (NCIH1299) | IC50 (NCIH1573) | further results
1 | COc1ncnc(C2CC2)c1-c1ncc2cnn(Cc3ccc(-c4nc(C(F)(F)F)cn4C)cc3)c2n1 [Formula II, 6-(4-cyclopropyl-6-methoxypyrimidin-5-yl)-1-(4-(1-methyl-4-(trifluoromethyl)-1H-imidazol-2-yl)benzyl)-1H-pyrazolo[3,4-d]pyrimidine] | > 300 nM | 34.9 nM | > 300 nM | > 300 nM | > 300 nM | > 300 nM | > 300 nM | > 300 nM | > 300 nM | > 300 nM | > 300 nM | > 300 nM | > 300 nM | 16.6 nM | 25 nM | > 300 nM | > 300 nM | > 300 nM | > 300 nM | 227 nM | IC50 (HT115; HT115, colon, read-out: IC50): 150 nM; IC50 (NCIH1651): 85.7 nM; IC50 (OVSAHO): > 300 nM; IC50 (PECAPJ49): > 300 nM; IC50 (PK45H): 294 nM; IC50 (RCM1): > 300 nM; IC50 (RERFLCAI): > 300 nM; IC50 (RKO): > 300 nM; IC50 (RL952): > 300 nM; IC50 (SKOV3_BRCA1null): > 300 nM; IC50 (SKOV3): > 300 nM; IC50 (SNGM): > 300 nM; IC50 (SNU213): > 300 nM; IC50 (SNU668): > 300 nM; IC50 (TE9): > 300 nM; IC50 (TGBC1TKB): > 300 nM; IC50 (U2OS): > 300 nM; IC50 (YKG1): > 300 nM
2 | NC(=O)c1cccc2cn(-c3ccc([C@@H]4CCCNC4)cc3)nc12 [Niraparib, niraparib, reference compound] | > 300 nM | 63.4 nM | > 300 nM | > 300 nM | 30.4 nM | > 300 nM | 22.4 nM | 13.8 nM | > 300 nM | > 300 nM | 36.9 nM | > 300 nM | > 300 nM | 25.3 nM | 181 nM | > 300 nM | > 300 nM | > 300 nM | > 300 nM | 15.2 nM | IC50 (HT115; HT115): 15.6 nM; IC50 (NCIH1651): 32.4 nM; IC50 (OVSAHO): > 300 nM; IC50 (PECAPJ49): > 300 nM; IC50 (PK45H): > 300 nM; IC50 (RCM1): > 300 nM; IC50 (RERFLCAI): > 300 nM; IC50 (RKO): > 300 nM; IC50 (RL952): > 300 nM; IC50 (SKOV3_BRCA1null): 262 nM; IC50 (SKOV3): > 300 nM; IC50 (SNGM): > 300 nM; IC50 (SNU213): > 300 nM; IC50 (SNU668): > 300 nM; IC50 (TE9): > 300 nM; IC50 (TGBC1TKB): > 300 nM; IC50 (U2OS): > 300 nM; IC50 (YKG1): > 300 nM
